Laboratory results: patent US20250092353A1, “COMMENSAL FUNGUS AND USES THEREOF” (YEDA RESEARCH AND DEVELOPMENT CO. LTD., priority 2022, published 2025)

Tests used:
[1] = Biolog Phenotype MicroArrays for chemical sensitivity (PM21-PM25); type: cell-based; conditions: compared to C. albicans; normalized AUC of growth
Experimental: FIGS. 2A-2F include micrographs, graphs, a plot, and a curve showing in vitro culture characteristics of K. weizmannii. (2A) Representative images of C. albicans and K. weizmannii in liquid media in presence of filament-inducing conditions, n=3 independent experiments. (2B) A graph showing largest differences in growth between K. weizmannii and C. albicans with different carbon sources, based on a z-score > or <2. Differences were calculated using the normalized area under the curve (AUC) of K. weizmannii and C. albicans. Normalization of the AUC are based on the growth of both species with glucose. Size of data points corresponds to the normalized AUC of K. weizmannii with the corresponding carbon source. All measurements were done using the Biolog Phenotype MicroArrays in biological triplicates. […] The data points are color-coded according to the different types of carbon sources. (2C) A graph showing the largest differences in growth between K. weizmannii and C. albicans with different nitrogen sources, based on a z-score greater than or less than 2. Differences were calculated using AUC of K. weizmannii and C. albicans and normalized based on the growth of both species with glutamine. […] GFP expressing C. albicans was detected by flowcytometry to discriminate between fungi, n=2 independent experiments.

Th17 cells = assay: RORγt+ Th17 cells in mesenteric and peripheral lymph nodes of colonized mice; type: in vivo; conditions: 5 weeks colonization
Description: FIGS. 4A-4F include graphs showing humoral and cellular immune responses to C. albicans and Kazachstania sp. (4A) Flow cytometric analysis of myeloid blood cell compartment of mice 4 weeks colonized with C. albicans or K. weizmannii. Neutrophils, classical and non-classical monocytes are defined as Ly6G+CD 115−, Ly6C+CD 115+, and […], respectively. N=8-21 mice, pooled from 3 independent experiments. Gating strategy, left, results, right. (4B) Flow cytometric analysis of humoral anti-fungal reactivity. Gating strategy for the determination of serum immunoglobulin binding to cultured C. albicans or K. weizmannii. (4C) Anti-C. albicans and K. weizmannii IgA and IgG serum reactivity of single-colonized animals, measured as shown in (4B). Note that most but not all animals harbor cross-reactive sera. (4D) Representative gating strategy of RORγt+ T cells (left); percentage of RORγt+ cells among TCRβ CD4+ T cells 5 weeks upon C. albicans or K. weizmannii colonization, n=3-5 mice per group, 3 independent experiments (right). […] EC damage was assessed using the LDH assay as described in (Allert et al., 2018). […]
Methods adhered to published guidelines (Cossarizza et al., 2019). Flow cytometry samples were recorded on BD LSR Fortessa 4 lasers or Cytek Aurora followed by data analysis using the FlowJo software (Treestar).

C. albicans = assay: Candidiasis in immunosuppressed C. albicans-colonized mice given Kazachstania-supplemented drinking water; type: in vivo
Experimental: Stably fungal-colonized mice were 5×s.c injected with 225 mg kg-1 with cortisone 21-acetate, following the scheme of injection every other day as described previously (Solis and Filler, 2012). Mice were monitored for weight loss. Following sacrifice, organs and feces were collected for histological examination, flow cytometry and fungal cultivations). If the weight dropped […], mice were sacrificed according to IACUC protocol.
For enumerating the number of recoverable C. albicans and K. weizmannii colony forming units, individual fecal pellets or each tissue from mice was sterilely dissected, weighed, and homogenized in sterile DDW. Serial dilutions on the organ homogenate were spread onto YPD media plates and the number of individual colonies enumerated after incubation at 37° C. for 24 hours.
Mice were euthanized and intestines, kidneys and tongue were excised and fixed overnight in 4% paraformaldehyde at 4° C. Paraffin embedding and sectioning was performed by the institutional histology unit. For immunohistochemistry of gut samples, slides were deparaffinized by 2 washes of Xylene followed by 100%, 96%, 70% EtOH and three washes with PBS. Slides were incubated for 30 minutes in 1% hydrogen peroxide in PBS at room temperature in the dark. After washing three times in PBS, slides were boiled for 10 minutes in Citric acid buffer pH 6.0 (10 mM citric acid and 0.05% Tween-20 in DDW), then washed with PBS three times. Next, slides were blocked in BP buffer (0.3% Triton X-100, 2% horse serum and 1% bovine serum albumin in PBS) for 1 h, then incubated overnight at 4° C. with a 1:200 dilution of the primary antibody (anti-Candida) in BP buffer. […] For histopathology of typical tongue or kidney fungal lesions in the mouse model of immunosuppression, paraffin sections were stained with periodic acid-Schiff (PAS) or H&E and slides were captured using a Panoramic SCAN II (3DHISTECH) and analyzed using CaseViewer software (3DHISTECH).

For Kazachstania weizmannii [K. weizmannii], the “resistance to chemical inhibitors, azoles” value [1] was “relative resistance to propriconazole and fucinazole”, the “sensitivity to chemical inhibitors, chlorides and bromides” value [1] was “more sensitive to chlorides and bromides” and the Th17 cell expansion (Th17 cells) was “no Th17 cell expansion was observed”. The “C. albicans in feces of colonized animals” value (C. albicans; Kazachstania-supplemented drinking water prior to immunosuppression) was “efficiently expelled C. albicans from colonized animals”, the “weight loss and systemic yeast spread (kidney colonization)” value (C. albicans; immunosuppressed C. albicans-colonized animals exposed to K. weizmannii) was “significantly delayed the weight loss and systemic yeast spread” and the durability of protection (C. albicans; prolonged immunosuppressive treatment) was “not permanently protected”.
